In brackets after ≈: the same amount, converted by molar mass.
test system: C. albicans CAF2-1 strain; assay: Anti-Candida activity (MIC measurement); assay type: cell-based; conditions: CAF21STRAIN, minimum inhibitory concentration (MIC) by visual inspection, RPMI 1640, 42 to 48 hours at 35° C.
Method: (§1) 1. Anti-Candida Activity and Anti-Aspergillus Activity
(§2) (1) Preparation of Fungal Sample
(§3) For the C. albicans CAF2-1 strain, a fungal suspension from a standing culture for 48 hours at 30° C. in a Sabouraud dextrose liquid culture medium (SDB) was diluted with RPMI 1640 medium to adjust a fungal suspension of 1.2×10^3 cells/mL. For the A. fumigatus Tsukuba strain, −80° C. stored strain was diluted with RPMI 1640 medium to adjust to a fungal suspension of 4.5×10^3 cells/mL.
(§4) (2) Preparation of an Agent Dilution Plate
(§5) Using a U-bottomed 96-well plate, 8 samples/plate (A to H) of sample dilution solutions were prepared. On the 2nd to 12th rows were dispensed 10 μL of dimethyl sulfoxide solution. Weighed sample was dissolved in dimethyl sulfoxide to prepare a 2.5 mg/mL solution, 20 μL of this solution was added to the first row of the prepared plate, and 12 steps of two-fold step dilutions (10 μL of solution+10 μL of dimethyl sulfoxide solution) were performed on the plate. This sample dilution solution was dispensed in an amount of 1 μL into a flat-bottomed 96-well plate for MIC measurement to prepare a sample dilution plate.
(§6) (3) Inoculation of Fungal Suspension and Culture
(§7) The fungal suspension prepared in (1) was used in an amount of 99 μL/well to inoculate the flat-bottomed 96-well plate containing 1 μL/well of the test compound dilution prepared in (2), and standing culture was performed aerobically for 42 to 48 hours at 35° C.
(§8) The following representative compounds prepared in the examples were measured for anti-Candida activity and anti-Aspergillus activity by measurement method in (1).

**Q.** With Nc1ncccc1-c1nnn(Cc2ccc(OCc3ccccc3)cc2)n1 [Example 5, 3-(2-(4-Benzyloxy-benzyl)-2H-tetrazol-5-yl)-pyridin-2-ylamine] as the compound, how does the MIC read?
**A.** The MIC was 0.78 µg/mL (≈ 2.18 µM).

**Q.** How did the MIC turn out when Nc1ncccc1-c1nnc(Cc2ccc(OCc3ccccc3)cc2)o1 [Example 9] was run?
**A.** Its MIC is 0.39 µg/mL (≈ 1.09 µM).

**Q.** With Nc1ccc(-c2nnn(Cc3ccc(OCc4ccccn4)cc3)n2)c(N)n1 [Example 27, 3-(2-(4-(Pyridin-2-ylmethoxy)-benzyl)-2H-tetrazol-5-yl)-pyridin-2,6-diamine] as the compound, how does the MIC read?
**A.** The MIC was 0.2 µg/mL (≈ 0.534 µM).

**Q.** CCCCOCc1ccc(Cn2cc(-c3ccc(COC)nc3N)nn2)cc1 [Example 41, 3-[1-(4-Butoxymethyl-benzyl)-1H-[1,2,3]triazol-4-yl]-6-methoxymethyl-pyridin-2-ylamine] was tested. Which MIC did it give?
**A.** The MIC was 0.39 µg/mL (≈ 1.02 µM).

**Q.** How did the MIC turn out when CCCCOCc1ccc(Cn2cc(-c3ccc(N)nc3N)nn2)cc1 [Example 42, 3-(1-(4-Butoxymethyl-benzyl)-1H-[1,2,3]triazol-4-yl)-pyridin-2,6-diamine] was run?
**A.** Its MIC is 0.2 µg/mL (≈ 0.567 µM).

**Q.** How did the MIC turn out when Cc1ccc(Cc2ccc(Cn3nnc(-c4cccnc4N)n3)cc2)o1 [Example 53, 3-(2-(4-(5-Methyl-furan-2-ylmethyl)-benzyl)-2H-tetrazol-5-yl)-pyridin-2-ylamine] was run?
**A.** The MIC was 0.39 µg/mL (≈ 1.13 µM).

test system: A. fumigatus Tsukuba strain; assay: Anti-Aspergillus activity (MIC measurement); assay type: cell-based; conditions: minimum inhibitory concentration (MIC) by visual inspection, RPMI 1640, 42 to 48 hours at 35° C.
Method: as §1, §2, §3, §4, §5, §6, §7, §8

**Q.** For Nc1ncccc1-c1nnn(Cc2ccc(OCc3ccccc3)cc2)n1 [Example 5, 3-(2-(4-Benzyloxy-benzyl)-2H-tetrazol-5-yl)-pyridin-2-ylamine], which MIC is on record?
**A.** The MIC was 1.56 µg/mL (≈ 4.35 µM).

**Q.** Which MIC does the source give for Nc1ncccc1-c1nnc(Cc2ccc(OCc3ccccc3)cc2)o1 [Example 9] here?
**A.** Its MIC is 0.78 µg/mL (≈ 2.18 µM).

**Q.** With Nc1ccc(-c2nnn(Cc3ccc(OCc4ccccn4)cc3)n2)c(N)n1 [Example 27, 3-(2-(4-(Pyridin-2-ylmethoxy)-benzyl)-2H-tetrazol-5-yl)-pyridin-2,6-diamine] as the compound, how does the MIC read?
**A.** The MIC was 0.78 µg/mL (≈ 2.08 µM).

**Q.** For CCCCOCc1ccc(Cn2cc(-c3ccc(COC)nc3N)nn2)cc1 [Example 41, 3-[1-(4-Butoxymethyl-benzyl)-1H-[1,2,3]triazol-4-yl]-6-methoxymethyl-pyridin-2-ylamine], which MIC is on record?
**A.** The MIC was 1.56 µg/mL (≈ 4.09 µM).

**Q.** Which MIC does the source give for CCCCOCc1ccc(Cn2cc(-c3ccc(N)nc3N)nn2)cc1 [Example 42, 3-(1-(4-Butoxymethyl-benzyl)-1H-[1,2,3]triazol-4-yl)-pyridin-2,6-diamine] here?
**A.** Its MIC is 0.78 µg/mL (≈ 2.21 µM).

**Q.** With Cc1ccc(Cc2ccc(Cn3nnc(-c4cccnc4N)n3)cc2)o1 [Example 53, 3-(2-(4-(5-Methyl-furan-2-ylmethyl)-benzyl)-2H-tetrazol-5-yl)-pyridin-2-ylamine] as the compound, how does the MIC read?
**A.** Its MIC is 0.78 µg/mL (≈ 2.25 µM).

test system: C. albicans E81022 strain; assay: Experimental systemic candidal infection model in mice; assay type: in vivo; conditions: Dose 2.5 mg/kg, peroral, 3 times every 4 hours; female ICR mice infected iv with C. albicans E81022; observed until 14 days after infection
Method: 2. Experimental Systemic Candidal Infection Model in Mice (1) Preparation of Fungal Inoculant
A standing culture of C. albicans E81022 strain was carried out for 48 hours at 30° C. in Sabouraud dextrose agar medium (SDA), and the recovered fungal cells were suspended in sterilized physiological saline. By counting the fungal number on cytometry plate, the suspension was diluted to 2×10^7 cells/mL with sterilized physiological saline to serve fungal inoculum.
The fungal inoculum was used in amounts of 0.2 mL to inoculate 4.5 to 5.5 week-old female ICR mice in the tail vein (4×10^6 cells/mouse).
From 0.5 to 1 hour after fungal inoculation, 0.2 mL of agent solution (dissolved or suspended in sterilized physiological saline containing 6.5% dimethyl sulfoxide and 3.5% Tween 80) was administered into the stomach using a peroral probe, 3 times every 4 hours. The agent concentration was 2.5 or 10 mg/kg, and the number of animal in one group was five animals.
(4) Determination of Effects
The protective effect was determined by observing life/death until 14 days after infection and calculating the mean survival days.

**Q.** Nc1ncccc1-c1nnc(Cc2ccc(OCc3ccccc3)cc2)o1 [Example 9] was tested. Which “Mean Survival Day (MSD)” value did it give?
**A.** Its value is 7.8 days.

**Q.** Which “Mean Survival Day (MSD)” value does the source give for Nc1ccc(-c2nnn(Cc3ccc(OCc4ccccn4)cc3)n2)c(N)n1 [Example 27, 3-(2-(4-(Pyridin-2-ylmethoxy)-benzyl)-2H-tetrazol-5-yl)-pyridin-2,6-diamine] here?
**A.** The value was 5.6 days.

**Q.** CCCCOCc1ccc(Cn2cc(-c3ccc(COC)nc3N)nn2)cc1 [Example 41, 3-[1-(4-Butoxymethyl-benzyl)-1H-[1,2,3]triazol-4-yl]-6-methoxymethyl-pyridin-2-ylamine] was tested. Which “Mean Survival Day (MSD)” value did it give?
**A.** The value was 6.2 days.

**Q.** For Cc1ccc(Cc2ccc(Cn3nnc(-c4cccnc4N)n3)cc2)o1 [Example 53, 3-(2-(4-(5-Methyl-furan-2-ylmethyl)-benzyl)-2H-tetrazol-5-yl)-pyridin-2-ylamine], which “Mean Survival Day (MSD)” value is on record?
**A.** The value was 7.6 days.

same assay, conditions: Dose 10 mg/kg, peroral, 3 times every 4 hours; female ICR mice infected iv with C. albicans E81022; observed until 14 days after infection

**Q.** How did the “Mean Survival Day (MSD)” value turn out when Nc1ncccc1-c1nnn(Cc2ccc(OCc3ccccc3)cc2)n1 [Example 5, 3-(2-(4-Benzyloxy-benzyl)-2H-tetrazol-5-yl)-pyridin-2-ylamine] was run?
**A.** The value was 11.8 days.

**Q.** How did the “Mean Survival Day (MSD)” value turn out when Nc1ncccc1-c1nnc(Cc2ccc(OCc3ccccc3)cc2)o1 [Example 9] was run?
**A.** Its value is 10.8 days.

**Q.** Which “Mean Survival Day (MSD)” value does the source give for Nc1ccc(-c2nnn(Cc3ccc(OCc4ccccn4)cc3)n2)c(N)n1 [Example 27, 3-(2-(4-(Pyridin-2-ylmethoxy)-benzyl)-2H-tetrazol-5-yl)-pyridin-2,6-diamine] here?
**A.** Its value is 12 days.

**Q.** How did the “Mean Survival Day (MSD)” value turn out when CCCCOCc1ccc(Cn2cc(-c3ccc(COC)nc3N)nn2)cc1 [Example 41, 3-[1-(4-Butoxymethyl-benzyl)-1H-[1,2,3]triazol-4-yl]-6-methoxymethyl-pyridin-2-ylamine] was run?
**A.** The value was 11.2 days.

**Q.** For CCCCOCc1ccc(Cn2cc(-c3ccc(N)nc3N)nn2)cc1 [Example 42, 3-(1-(4-Butoxymethyl-benzyl)-1H-[1,2,3]triazol-4-yl)-pyridin-2,6-diamine], which “Mean Survival Day (MSD)” value is on record?
**A.** Its value is 13.6 days.

**Q.** How did the “Mean Survival Day (MSD)” value turn out when Cc1ccc(Cc2ccc(Cn3nnc(-c4cccnc4N)n3)cc2)o1 [Example 53, 3-(2-(4-(5-Methyl-furan-2-ylmethyl)-benzyl)-2H-tetrazol-5-yl)-pyridin-2-ylamine] was run?
**A.** The value was 13.8 days.
